# Test system: Plasmodium berghei
# Test: Luciferase/luciferin-expressing antifolate-resistant parasites were used to infect a culture of HepG2 cells that were pre-incubated with compounds. Infected hepatocytes emit light due to the luciferase reaction. Assay results are presented as the percent inhibition of light emission compared to control. […]
# Format: functional
# Conditions: sporozoite; for IC90: read-out: LUCIFERASE INFECTION ASSAY - IC90
# [1] = read-out: LUCIFERASE INFECTION ASSAY - IC50
SMILES,IC90 [µM],IC50 [1] [µM],other results
O=c1cc(C(F)(F)F)[nH]n1-c1ccc(OC(F)(F)F)cc1,> 10.6,–,"IC50 (HEPG2TOX_HILL_SLOPE 7.72, HEPG2TOX_R_SQUARED 0.792, PBLUC_HILL_SLOPE 12.3, PBLUC_R_SQUARED 0.186, read-out: LUCIFERASE INFECTION ASSAY - IC50): 9.78 µM"
CC(C)C(N)c1csc(NC(=O)c2cc(C(C)(C)C)nn2Cc2ccccc2)n1 (configuration not stated),3.46,–,"IC50 (PBLUC_HILL_SLOPE 594, PBLUC_R_SQUARED 0.291, read-out: LUCIFERASE INFECTION ASSAY - IC50): 3.45 µM"
c1ccc(Cn2cc(-c3cn4c(-c5ccc6ncccc6c5)cnc4cn3)cn2)cc1,> 8.2,> 8.2,–
Cc1ccc(N2C(=O)C=CC2=O)cc1C,12.2,6.57,–
CCCCOC1(c2ccc(C)cc2)N=C(SCC(=O)NCC(C)C)NN=C1c1ccc(C)cc1 (configuration not stated),> 10,–,"IC50 (PBLUC_HILL_SLOPE 3.83, PBLUC_R_SQUARED 0.417, read-out: LUCIFERASE INFECTION ASSAY - IC50): 6.12 µM"
Cc1cc(N(CCC#N)C(=O)Cn2ncc(Cl)c(Cl)c2=O)ccc1Cl,5.85,5.68,–
CCN1C(=O)N(C2Cc3ccccc3C2)C(=O)C12CCN(Cc1ccc(-c3ccco3)cc1)CC2,> 7.03,–,"IC50 (PBLUC_HILL_SLOPE 11.2, PBLUC_R_SQUARED 0.677, read-out: LUCIFERASE INFECTION ASSAY - IC50): 6.46 µM"
Cc1ccc(C)c(NC(=O)CN(C)C(=O)CN2CCN(c3ccccc3)CC2)c1,> 10,> 10,–
CCc1nn2c(NCc3ccccn3)cc(C)nc2c1-c1ccccc1,> 9.61,–,"IC50 (PBLUC_HILL_SLOPE 4, PBLUC_R_SQUARED 0.354, read-out: LUCIFERASE INFECTION ASSAY - IC50): 6.15 µM"
CC(C)(C)c1ccccc1NC(=O)CCC(=O)N1CCC(c2ccccc2)=N1,> 10,> 10,–
O=[N+]([O-])c1ccc(NN=C(Cc2ccccc2)Cc2ccccc2)c(S(=O)(=O)Nc2ccccc2Cl)c1,> 10,–,"IC50 (HEPG2TOX_HILL_SLOPE 2.02, HEPG2TOX_R_SQUARED 0.983, PBLUC_HILL_SLOPE 2.86, PBLUC_R_SQUARED 0.742, read-out: LUCIFERASE INFECTION ASSAY - IC50): 6.11 µM"
COc1ccc(C(=O)Nc2cccc(/C=C/C(=O)c3ccc(C4CCCCC4)cc3)c2)cc1,9.2,7.51,–
Cc1ccc(-c2c(C)sc3[nH]c(CN(C)CC(=O)Nc4cccc(C)c4C)nc(=O)c23)cc1,> 10,> 10,–
CN(C)c1ccc(Nc2cc(-c3cccc4ccccc34)ncn2)cc1,6.64,–,"IC50 (HEPG2TOX_HILL_SLOPE 1.74, HEPG2TOX_R_SQUARED 0.777, PBLUC_HILL_SLOPE 1.75, PBLUC_R_SQUARED 0.668, read-out: LUCIFERASE INFECTION ASSAY - IC50): 1.9 µM"
Cc1nc(SCC(=O)N(C)Cc2cnn(Cc3ccccc3)c2)c2c(C)c(C)sc2n1,> 10,> 10,–
O=C1c2ccccc2S(=O)(=O)N1c1ccccc1F,> 10,> 10,–
COc1ccc(-c2cc(NC(=O)c3ccc(OCc4c(C)noc4C)cc3)ccc2OC)cc1,> 10,–,"IC50 (HEPG2TOX_HILL_SLOPE 5.81, HEPG2TOX_R_SQUARED 0.572, PBLUC_HILL_SLOPE 1.68, PBLUC_R_SQUARED 0.219, read-out: LUCIFERASE INFECTION ASSAY - IC50): > 10 µM"
CC(C)Cc1ccc(C(C)c2nn3c(-c4ccco4)nnc3s2)cc1 (configuration not stated),0.257,–,"IC50 (HEPG2TOX_HILL_SLOPE 0.343, HEPG2TOX_R_SQUARED 0.467, PBLUC_HILL_SLOPE 2.04, PBLUC_R_SQUARED 0.902, read-out: LUCIFERASE INFECTION ASSAY - IC50): 0.0873 µM"
N#Cc1ncn(-c2nc(-c3ccccn3)nc3sc(-c4ccccc4)cc23)n1,7.91,–,"IC50 (HEPG2TOX_HILL_SLOPE 1.72, HEPG2TOX_R_SQUARED 0.411, PBLUC_HILL_SLOPE 3.83, PBLUC_R_SQUARED 0.832, read-out: LUCIFERASE INFECTION ASSAY - IC50): 4.46 µM"
Cc1cc(C(=O)NCCc2cccc(F)c2)c(C)n1C(C)C,0.0364,–,"IC50 (PBLUC_HILL_SLOPE 3.76, PBLUC_R_SQUARED 0.418, read-out: LUCIFERASE INFECTION ASSAY - IC50): 0.0203 µM"
Cc1nc(-c2ccccn2)nc(N(C)Cc2ccccc2)c1Cl,3.5,–,"IC50 (PBLUC_HILL_SLOPE 72.3, PBLUC_R_SQUARED 0.385, read-out: LUCIFERASE INFECTION ASSAY - IC50): 3.4 µM"
Cc1cc(=O)n2nc(COC(=O)c3ccccc3Nc3ccccc3)sc2n1,> 10,> 10,–
CCC(=O)N1CCC1(C)C(=O)NCc1ccc2c(c1)OCO2 (configuration not stated),> 10.8,> 10.8,–

SMILES,IC90 [µM],IC50 [1] [µM],other results
CCc1nc(SCC(=O)Nc2nsc(-c3ccc(C(C)(C)C)cc3)n2)c2c3c(sc2n1)CCC3,> 10,–,"IC50 (FFLUC_HILL_SLOPE 7.48, FFLUC_R_SQUARED 0.446, read-out: LUCIFERASE INFECTION ASSAY - IC50): > 10 µM"
CCOC(=O)c1cc(C#N)c(N2CCN(S(=O)(=O)c3ccccc3Cl)CC2)nc1C(F)(F)F,> 6.56,> 6.56,–
CCOc1ccccc1C=C(c1nc2ccccc2s1)c1nc2ccccc2s1,9.81,–,"IC50 (PBLUC_HILL_SLOPE 3.78, PBLUC_R_SQUARED 0.344, read-out: LUCIFERASE INFECTION ASSAY - IC50): 5.48 µM"
COc1ccc(C)cc1C(C)NC(=O)c1cc2ccsc2[nH]1 (configuration not stated),> 10,> 10,–
Cc1ccc(/C=N/Nc2nn3c(=O)c4ccccc4nc3c3ccccc23)o1,8.5,–,"IC50 (HEPG2TOX_HILL_SLOPE 9.29, HEPG2TOX_R_SQUARED 0.957, PBLUC_HILL_SLOPE 5.5, PBLUC_R_SQUARED 0.698, read-out: LUCIFERASE INFECTION ASSAY - IC50): 5.7 µM"
Cc1c(C)n(CCCO)c2ncn3nc(-c4ccccc4)nc3c12,> 10.3,–,"IC50 (PBLUC_HILL_SLOPE 0.753, PBLUC_R_SQUARED 0.737, read-out: LUCIFERASE INFECTION ASSAY - IC50): 1.26 µM"
CCN(CC)c1ccc(NC(=O)c2cccc(N3C(=O)c4ccccc4C3=O)c2)cc1S(=O)(=O)Nc1ccccc1OC,> 10,–,"IC50 (FFLUC_HILL_SLOPE 15.4, FFLUC_R_SQUARED 0.773, PBLUC_HILL_SLOPE 13.2, PBLUC_R_SQUARED 0.21, read-out: LUCIFERASE INFECTION ASSAY - IC50): 9.38 µM"
O=C(Nn1cn[nH]c1=S)c1ccc2ccccc2n1,> 10,–,"IC50 (HEPG2TOX_HILL_SLOPE 3, HEPG2TOX_R_SQUARED 0.551, PBLUC_HILL_SLOPE 3.2, PBLUC_R_SQUARED 0.429, read-out: LUCIFERASE INFECTION ASSAY - IC50): 5.8 µM"
CCn1c(SCCC(=O)Nc2cc(C)on2)nnc1-c1ccc(C(C)(C)C)cc1,> 10,> 10,–
Cc1c(Cl)cccc1/N=C1\SCCN1C(=O)C(c1ccccc1)c1ccccc1,> 10,–,"IC50 (HEPG2TOX_HILL_SLOPE 4.09, HEPG2TOX_R_SQUARED 0.235, read-out: LUCIFERASE INFECTION ASSAY - IC50): > 10 µM"
O=C1c2cccc3c([N+](=O)[O-])ccc(c23)C(=O)N1Cc1cccnc1,> 9.9,> 9.9,–
COC(=O)/C(O)=C/C(=O)c1c(C)[nH]c(C(=O)OC)c1C,> 10,> 10,–
Cc1ccc(C)c(OC2CCN(C(=O)Nc3cc(C)on3)CC2)c1,1.37,–,"IC50 (HEPG2TOX_HILL_SLOPE 1.23, HEPG2TOX_R_SQUARED 0.839, PBLUC_HILL_SLOPE 15.3, PBLUC_R_SQUARED 0.595, read-out: LUCIFERASE INFECTION ASSAY - IC50): 1.19 µM"
Cc1nc(-c2ccc(CCNC(=O)c3ccc(S(C)(=O)=O)c([N+](=O)[O-])c3)cc2)cs1,5.46,–,"IC50 (HEPG2TOX_HILL_SLOPE 14.7, HEPG2TOX_R_SQUARED 0.837, PBLUC_HILL_SLOPE 381, PBLUC_R_SQUARED 0.298, read-out: LUCIFERASE INFECTION ASSAY - IC50): 5.43 µM"
NC(=O)c1ccsc1NC(=O)Cc1coc2cc3c(cc12)CCC3,3.88,–,"IC50 (FFLUC_HILL_SLOPE 3.24, FFLUC_R_SQUARED 0.678, PBLUC_HILL_SLOPE 11.8, PBLUC_R_SQUARED 0.833, read-out: LUCIFERASE INFECTION ASSAY - IC50): 3.22 µM"
CC(C)CC(N)c1csc(NC(=O)c2ccc(F)c(Cl)c2)n1 (configuration not stated),> 9.65,8.74,–
CCCCNC(=O)Nc1ccn(C)n1,> 16.8,> 16.8,–
CCc1sc(C(=O)Nc2cnc3ccccc3c2)cc1C,> 10,–,"IC50 (HEPG2TOX_HILL_SLOPE 1.13, HEPG2TOX_R_SQUARED 0.365, PBLUC_HILL_SLOPE 0.275, PBLUC_R_SQUARED 0.613, read-out: LUCIFERASE INFECTION ASSAY - IC50): 0.46 µM"
COc1ccccc1-n1c(COc2ccccc2-c2ccccc2)nnc1SC(C(=O)NC(N)=O)C(C)C (configuration not stated),> 10,–,"IC50 (HEPG2TOX_HILL_SLOPE 0.0773, HEPG2TOX_R_SQUARED 0.0989, read-out: LUCIFERASE INFECTION ASSAY - IC50): > 10 µM"
O=c1[nH]c2ccc(-c3csc(Nc4ccc(Cl)cc4)n3)cc2o1,> 10,–,"IC50 (HEPG2TOX_HILL_SLOPE 16.7, HEPG2TOX_R_SQUARED 0.933, PBLUC_HILL_SLOPE 4.05, PBLUC_R_SQUARED 0.109, read-out: LUCIFERASE INFECTION ASSAY - IC50): 7.81 µM"
O=S(=O)(c1ccc(Br)s1)N(c1ccc2c(c1)OC1(CCCC1)O2)S(=O)(=O)c1ccc(Br)s1,> 10,4.98,–
CC(=O)c1cc2c(N)c(C(=O)OCc3cccc4ccccc34)sc2nc1C,> 10,> 10,–
COc1ccc(OC)c(CCNc2nc3cnc(-c4ccc5c(c4)OCO5)cc3n2C)c1,2.5,–,"IC50 (HEPG2TOX_HILL_SLOPE 2.94, HEPG2TOX_R_SQUARED 0.93, PBLUC_HILL_SLOPE 1.47, PBLUC_R_SQUARED 0.742, read-out: LUCIFERASE INFECTION ASSAY - IC50): 0.558 µM"

# Source: ChEMBL document CHEMBL4483862, “Open-source discovery of chemical leads for next-generation chemoprotective antimalarials” (2018)
